{"source": "paper doi:10.1101/2020.08.04.236984v1", "about": "(bioRxiv, 2020)", "key": {"[1]": {"test_system": "HMG-CoA reductase expression in SKBR-3 cells", "conditions": "atorvastatin at a micromolar concentration, ref [57]; cited from earlier work"}, "[2]": {"test_system": "MDA-MB-231 cells", "assay": "Membrane fluidity, fluorescence anisotropy of TMA-DPH", "format": "cell-based", "conditions": "atorvastatin 72 h"}, "[3]": {"test_system": "HMG-CoA reductase expression in MDA-MD-231 cells", "conditions": "atorvastatin at a micromolar concentration, ref [57]; cited from earlier work"}, "[4]": {"test_system": "SKBR-3 cells", "assay": "Flow cytometric measurement of penetratin uptake and endo-lysosomal release", "format": "cell-based", "conditions": "atorvastatin 100 nM and 10 μM, 72 h pre-treatment, versus control"}, "[5]": {"test_system": "SKBR-3 cells", "assay": "Membrane compactness, generalized polarization of Laurdan", "format": "cell-based", "conditions": "atorvastatin 72 h, 2 μM Laurdan"}}, "data": [{"smiles": "CC(C)c1c(C(=O)Nc2ccccc2)c(-c2ccccc2)c(-c2ccc(F)cc2)n1CC[C@@H](O)C[C@@H](O)CC(=O)O", "note": "[atorvastatin]", "values": [{"measurement": "induction of HMG-CoA reductase expression", "setting": "[1]", "value": 4, "unit": "fold"}, {"measurement": "effect on membrane microviscosity (TMA-DPH anisotropy)", "setting": "[2]", "value": "unexpected increase"}, {"measurement": "change in HMG-CoA reductase enzyme expression", "setting": "[3]", "value": "no change"}, {"measurement": "amount of penetratin leaving the endo-lysosomal compartment", "setting": "[4]", "value": "significantly higher"}, {"measurement": "effect on membrane compactness (generalized polarization of Laurdan)", "setting": "[5]", "value": "decrease"}]}]}
